In brackets after ≈: the same amount, converted by molar mass.
How the values were obtained:
Assay in all cases: Antibacterial activity, MIC
Assay type in all cases: cell-based
[1] = tested on: Pseudomonas aeruginosa ATCC 27853; settings: ATCC27853, ATCC 27853, agar two-fold dilution, 37° C., 20 hours, read-out: MIC
Summary of the method: (§1)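 MIC by two-fold serial dilution in Mueller-Hinton agar; inoculum 2 μl at 10^7 CFU/ml; 37 °C, 20 h.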

[2] = tested on: Pseudomonas aeruginosa ATCC 25619; settings: ATCC25619, ATCC 25619, agar two-fold dilution, 37° C., 20 hours, read-out: MIC
Summary of the method: as §1

[3] = tested on: Escherichia coli ATCC 25922; settings: ATCC25922, agar two-fold dilution, 37° C., 20 hours
Summary of the method: as §1

[4] = tested on: Morganella morganii ATCC 8076h; settings: ATCC8076H, agar two-fold dilution, 37° C., 20 hours
Summary of the method: as §1

[5] = tested on: Streptococcus faecalis ATCC 29212; settings: Enterococcus faecalis, ATCC29212; ATCC 29212; agar two-fold dilution, 37° C., 20 hours; read-out: MIC
Summary of the method: as §1

[6] = tested on: Enterobacter aerogenes ATCC 29751; settings: Klebsiella aerogenes, ATCC29751; ATCC 29751; agar two-fold dilution, 37° C., 20 hours; read-out: MIC
Summary of the method: as §1

[7] = tested on: Shigella sonnei ATCC 11060; settings: ATCC11060, ATCC 11060, agar two-fold dilution, 37° C., 20 hours, read-out: MIC
Summary of the method: as §1

[8] = tested on: Citrobacter freundii ATCC 8090; settings: ATCC8090, ATCC 8090, agar two-fold dilution, 37° C., 20 hours, read-out: MIC
Summary of the method: as §1

[9] = tested on: Klebsiella pneumoniae ATCC 10031; settings: ATCC10031, ATCC 10031, agar two-fold dilution, 37° C., 20 hours, read-out: MIC
Summary of the method: as §1

[10] = tested on: Bacillus cereus ATCC 11778; settings: ATCC11778, ATCC 11778, agar two-fold dilution, 37° C., 20 hours, read-out: MIC
Summary of the method: as §1

[11] = tested on: Shigella flexneri ATCC 11836; settings: ATCC11836, agar two-fold dilution, 37° C., 20 hours
Summary of the method: as §1

[12] = tested on: Staphylococcus epidermidis ATCC 12228; settings: ATCC12228, ATCC 12228, agar two-fold dilution, 37° C., 20 hours, read-out: MIC
Summary of the method: as §1

[13] = tested on: Pseudomonas aeruginosa ATCC 10145; settings: ATCC10145, ATCC 10145, agar two-fold dilution, 37° C., 20 hours, read-out: MIC
Summary of the method: as §1

[14] = tested on: Escherichia coli ATCC 10536; settings: ATCC10536, agar two-fold dilution, 37° C., 20 hours
Summary of the method: as §1

[15] = tested on: Proteus vulgaris ATCC 6059; settings: ATCC6059, ATCC 6059, agar two-fold dilution, 37° C., 20 hours, read-out: MIC
Summary of the method: as §1

[16] = tested on: Bacillus megaterium ATCC 9885; settings: Priestia megaterium, ATCC9885; ATCC 9885; agar two-fold dilution, 37° C., 20 hours; read-out: MIC
Summary of the method: as §1

[17] = tested on: Proteus mirabilis ATCC 25933; settings: ATCC25933, ATCC 25933, agar two-fold dilution, 37° C., 20 hours, read-out: MIC
Summary of the method: as §1

[18] = tested on: Staphylococcus aureus ATCC 6538p; settings: ATCC6538P, ATCC 6538p, agar two-fold dilution, 37° C., 20 hours, read-out: MIC
Summary of the method: as §1

[19] = tested on: Enterobacter cloacae ATCC 27508; settings: ATCC27508, ATCC 27508, agar two-fold dilution, 37° C., 20 hours, read-out: MIC
Summary of the method: as §1

[20] = tested on: Serratia marcescens ATCC 27117; settings: ATCC27117, ATCC 27117, agar two-fold dilution, 37° C., 20 hours, read-out: MIC
Summary of the method: as §1

[21] = tested on: Micrococcus luteus ATCC 9341; settings: ATCC9341, ATCC 9341, agar two-fold dilution, 37° C., 20 hours, read-out: MIC
Summary of the method: as §1

[22] = tested on: Salmonella typhimurium ATCC 14028; settings: Salmonella enterica; ATCC 14028; agar two-fold dilution, 37° C., 20 hours; read-out: MIC
Summary of the method: as §1

[23] = tested on: Staphylococcus aureus ATCC 10537; settings: ATCC10537, ATCC 10537, agar two-fold dilution, 37° C., 20 hours, read-out: MIC
Summary of the method: as §1

[24] = tested on: Acinetobacter calcoaceticus ATCC 15473; settings: ATCC15473, ATCC 15473, agar two-fold dilution, 37° C., 20 hours, read-out: MIC
Summary of the method: as §1

[25] = tested on: Providencia rettgeri ATCC 9250; settings: ATCC9250, agar two-fold dilution, 37° C., 20 hours
Summary of the method: as §1

| SMILES | MIC [1] [µg/mL] | MIC [2] [µg/mL] | MIC [3] [µg/mL] | MIC [4] [µg/mL] | MIC [5] [µg/mL] | MIC [6] [µg/mL] | MIC [7] [µg/mL] | MIC [8] [µg/mL] | MIC [9] [µg/mL] | MIC [10] [µg/mL] | MIC [11] [µg/mL] | MIC [12] [µg/mL] | MIC [13] [µg/mL] | MIC [14] [µg/mL] | MIC [15] [µg/mL] | MIC [16] [µg/mL] | MIC [17] [µg/mL] | MIC [18] [µg/mL] | MIC [19] [µg/mL] | MIC [20] [µg/mL] | other results |
| --- | --- | --- | --- | --- | --- | --- | --- | --- | --- | --- | --- | --- | --- | --- | --- | --- | --- | --- | --- | --- | --- |
| COc1cccc(OC)c1-[n+]1c(N)cc(N)nc1SCC1=C(C(=O)[O-])N2C(=O)C(NC(=O)/C(=N\OC(C)(C)C(=O)O)c3csc(N)n3)C2SC1 (stereo not shown) [Compound I-43] | 4 (≈ 5.36 µM) | 4 (≈ 5.36 µM) | 0.5 (≈ 0.67 µM) | 0.031 (≈ 0.0416 µM) | > 128 | 2 (≈ 2.68 µM) | 0.5 (≈ 0.67 µM) | 1 (≈ 1.34 µM) | 0.25 (≈ 0.335 µM) | 32 (≈ 42.9 µM) | 0.25 (≈ 0.335 µM) | 2 (≈ 2.68 µM) | 8 (≈ 10.7 µM) | 0.5 (≈ 0.67 µM) | 0.5 (≈ 0.67 µM) | 0.25 (≈ 0.335 µM) | 0.5 (≈ 0.67 µM) | 4 (≈ 5.36 µM) | 0.25 (≈ 0.335 µM) | 2 (≈ 2.68 µM) | MIC [21]: 0.25 µg/mL (≈ 0.335 µM); MIC [22]: 2 µg/mL (≈ 2.68 µM); MIC [23]: 2 µg/mL (≈ 2.68 µM); MIC [24]: 32 µg/mL (≈ 42.9 µM); MIC [25]: 0.031 µg/mL (≈ 0.0416 µM) |
| CC(C)(O/N=C(\C(=O)NC1C(=O)N2C(C(=O)[O-])=C(CSc3nc(N)cc(N)[n+]3C3CC3)CSC12)c1csc(N)n1)C(=O)O (stereo not shown) [Compound I-48] | 2 (≈ 3.08 µM) | 2 (≈ 3.08 µM) | 0.13 (≈ 0.2 µM) | ≤ 0.008 | > 128 | 2 (≈ 3.08 µM) | 0.13 (≈ 0.2 µM) | 0.13 (≈ 0.2 µM) | 0.063 (≈ 0.097 µM) | 64 (≈ 98.5 µM) | 0.063 (≈ 0.097 µM) | 2 (≈ 3.08 µM) | 4 (≈ 6.16 µM) | 0.13 (≈ 0.2 µM) | 0.13 (≈ 0.2 µM) | 0.5 (≈ 0.77 µM) | 0.063 (≈ 0.097 µM) | 4 (≈ 6.16 µM) | 0.031 (≈ 0.0477 µM) | 0.25 (≈ 0.385 µM) | MIC [21]: 0.5 µg/mL (≈ 0.77 µM); MIC [22]: 0.5 µg/mL (≈ 0.77 µM); MIC [23]: 4 µg/mL (≈ 6.16 µM); MIC [24]: 4 µg/mL (≈ 6.16 µM); MIC [25]: ≤ 0.008 µg/mL |
| C=CCO/N=C(\C(=O)NC1C(=O)N2C(C(=O)[O-])=C(CSc3nc(N)cc(N)[n+]3C)CSC12)c1csc(N)n1 (stereo not shown) [Compound I-49] | 8 (≈ 13.8 µM) | 1 (≈ 1.73 µM) | 0.25 (≈ 0.433 µM) | ≤ 0.008 | 16 (≈ 27.7 µM) | 1 (≈ 1.73 µM) | 0.25 (≈ 0.433 µM) | 0.25 (≈ 0.433 µM) | 0.016 (≈ 0.0277 µM) | 32 (≈ 55.4 µM) | 0.063 (≈ 0.109 µM) | 0.13 (≈ 0.225 µM) | 16 (≈ 27.7 µM) | 0.25 (≈ 0.433 µM) | 0.5 (≈ 0.866 µM) | 0.25 (≈ 0.433 µM) | 0.5 (≈ 0.866 µM) | 0.25 (≈ 0.433 µM) | 0.031 (≈ 0.0537 µM) | 0.5 (≈ 0.866 µM) | MIC [21]: 0.031 µg/mL (≈ 0.0537 µM); MIC [22]: 1 µg/mL (≈ 1.73 µM); MIC [23]: 0.25 µg/mL (≈ 0.433 µM); MIC [24]: 8 µg/mL (≈ 13.8 µM); MIC [25]: ≤ 0.008 µg/mL |
| C=CCO/N=C(\C(=O)NC1C(=O)N2C(C(=O)[O-])=C(CSc3nc(N)cc(N)[n+]3CC)CSC12)c1csc(N)n1 (stereo not shown) [Compound I-50] | 4 (≈ 6.76 µM) | 1 (≈ 1.69 µM) | 0.13 (≈ 0.22 µM) | ≤ 0.008 | 8 (≈ 13.5 µM) | 0.5 (≈ 0.845 µM) | 0.13 (≈ 0.22 µM) | 0.13 (≈ 0.22 µM) | ≤ 0.008 | 8 (≈ 13.5 µM) | 0.031 (≈ 0.0524 µM) | 0.063 (≈ 0.106 µM) | 4 (≈ 6.76 µM) | 0.13 (≈ 0.22 µM) | 0.25 (≈ 0.423 µM) | 0.13 (≈ 0.22 µM) | 0.25 (≈ 0.423 µM) | 0.13 (≈ 0.22 µM) | 0.016 (≈ 0.027 µM) | 0.25 (≈ 0.423 µM) | MIC [21]: ≤ 0.008 µg/mL; MIC [22]: 0.5 µg/mL (≈ 0.845 µM); MIC [23]: 0.13 µg/mL (≈ 0.22 µM); MIC [24]: 4 µg/mL (≈ 6.76 µM); MIC [25]: ≤ 0.008 µg/mL |

From US5202315A, “Cephalosporin compounds” (Lucky, Ltd., priority 1989, dated 1993)
